Values of other authors in US20180235992A1, “IMMUNOTHERAPIES FOR MALIGNANT, NEURODEGENERATIVE AND DEMYELINATING DISEASES BY THE USE OF TARGETED NANOCARRIERS” (RODOS BIOTARGET GMBH, priority 2015, published 2018).

Assays:
pancreatic cancer = settings: given intravenously, equal dose
human melanoma cells = settings: Fas Receptor/Caspase-8 pathway independent of p53
[1] = test system: human vascular endothelial cells; settings: in vitro
[2] = test system: Fibroblast Growth Factor-2-induced angiogenic response; settings: in-vivo
[3] = test system: human acute myelogenous leukemia cell line HL-60
[4] = test system: multiple myeloma cell lines
pancreatic cancer model = settings: in vivo
pancreatic cancer cells = settings: modulating miR-200 and miR-21 expression
human pancreatic cancer = settings: mouse, in vivo
[5] = test system: squamous cell carcinoma head and neck cell lines
[6] = test system: Alzheimer's β-amyloid fibrils; settings: in vitro

| Molecule | tumor weights and volumes (pancreatic cancer) | proliferation and apoptosis (mantle cell lymphoma) | apoptosis (human melanoma cells) | proliferation [1] | angiogenic response [2] | apoptosis [3] | expression of NF-κB, Bcl-2 and Bcl-XL [4] | antitumor activity of gemcitabine (pancreatic cancer model) | gemcitabine sensitivity (pancreatic cancer cells) | tumor growth and angiogenesis (human pancreatic cancer) | apoptosis [5] | anti-amyloidogenic effects [6] |
| --- | --- | --- | --- | --- | --- | --- | --- | --- | --- | --- | --- | --- |
| COc1cc(/C=C/C(=O)CC(=O)/C=C/c2ccc(O)c(OC)c2)ccc1O [curcumin] | failed to cause a significant reduction | suppress proliferation, and induce apoptosis | induces apoptosis | suppresses the proliferation | inhibits | induces apoptosis | suppresses expression | potentiates the antitumor activity of gemcitabine | induces gemcitabine sensitivity | inhibits tumor growth and angiogenesis | induces apoptosis | potent anti-amyloidogenic effects |
| [DLys(6)]-LHRH-curcumin | caused a reduction in tumor weights and volumes | – | – | – | – | – | – | – | – | – | – | – |
